Literature values as cited in patent US20060165808A1, “Microcapsules for the delayed, controlled release of perindopril” (priority 2002, published 2006).

Structure (SMILES): CCC[C@H](N[C@@H](C)C(=O)N1[C@H](C(=O)O)C[C@@H]2CCCC[C@@H]21)C(=O)OCC [perindopril]
- solubility in aqueous media: very high degree of solubility
